We go through five compounds from patent US7658706B2, “Vascular graft sterilization and decellularization” (RTI Biologics, Inc., priority 2005, dated 2010).

Like-named read-outs stand apart in the source and are kept apart here. Where only a bound is given, the exact number is not on record here.

The test system of data set [1] is human greater saphenous vein. To be noted: 0.075% SDS; cited from earlier work.
Data set [2] has as its system class I MHC antigens in human saphenous vein. In words: Immunohistochemical stain for class I MHC antigens after decellularization (Example 1). On the procedure: The effectiveness of cell and cellular debris removal was evaluated using two detergent and two enzyme solutions at various concentrations (Table 2). […] One treatment group combined Triton-X 100 with sodium deoxycholate. Trypsin alone at 0.05% (w/v) or 1.0% (w/v) and in combination with 0.02% (w/v) EDTA were the enzyme solutions used in the decellularization process.
Samples were then rinsed in PBS at room temperature for 10 minutes while continuously shaking. Following the rinse step, the samples were cut in half and either prepared for histology or immunohistochemistry.
Immunohistochemistry was used to determine the level of antigens remaining in the tissue after treatment. […] Samples were prepared in frozen blocks and sectioned with a cryostat. The sections were thawed and then rinsed for blocking and antibody staining. Sections were incubated for 30 minutes in primary antibody (mouse anti-HLA-ABC class I MHC) solution and then for anther 30 minutes in diluted biotinylated secondary antibody (Vector ABC Elite kit) solution. An enzyme substrate, NovaRed (Vector), was used to stain the antibodies red. The counter stain was hematoxylin providing a blue contrast.
A Zeiss Axiophot 2 microscope with a motorized Ludl scanning stage was used with tile field mapping at 5× to capture the entire image in one frame. Particle analysis was performed in Image J to determine the ratio of antigen staining (red) to the total tissue sample.
A blue and green filter was applied to only allow red to pass. Obvious areas of antigen staining were removed due to this variation in red hue. […] All samples were compared to their negatives for a percentage of red staining.
This procedure was applied to all images. […] The treatment groups are labeled according to the detergent or enzyme used followed by the processing conditions. For the Trypsin and Trypsin+EDTA groups, the concentrations ranged from 0.05% (L) to 1.0% (H), the processing temperatures were 37° C. (L), 48° C. (M) and 55° C. (H), and the processing times were 6 hrs (L), 17 hrs (M) and 24 hrs (H).

The test system of a further data set is human saphenous vein. In words: Histology (H&E) for cellularity and matrix (Example 1). Conditions: 0.05% Trypsin, 37° C., 6 or 24 hours (FIGS. 7, 8). On the procedure: Samples of human saphenous veins 10 mm in length were placed in each of the test solution at 37° C. or 48° C. for both 6 and 24 hours while continuously shaking. Samples were then rinsed in PBS at room temperature for 10 minutes while continuously shaking. Following the rinse step, the samples were cut in half and either prepared for histology or immunohistochemistry.
Samples were placed in 10% buffered formalin immediately following the rinse step and remained there for at least 24 hours before further preparation. Then, the samples were embedded in paraffin and stained with hematoxylin and eosin (H&E) to determine cellularity.
The results of the immunohistochemical stain were compared to histology slides stained for cellularity (FIGS. 7 to 10). […] The extracellular matrix is preserved in each segment except with 1.0% Cholate at 48° C.

The next data set relates to collagen. In words: Collagen denaturation, quantitative enzyme digestion assay (matrix integrity). The procedure:
One of the major structural components of the extracellular matrix that gives veins their strength is collagen. Damage to collagen can result in mechanical failures such as increased compliance or aneurism formation. It can also result in a cellular response due the exposure of the triple helix when stability is compromised. The amount of collagen denaturation was assessed to evaluate processing conditions with a quantitative enzyme digestion assay. […] Digested and undigested fractions are separated and hydrolyzed with concentrated hydrochloric acid (HCl) to release free amino acids from each fraction. Following neutralization of the acid in 1 N NaOH, levels of hydroxyproline (an amino acid present in high concentrations in collagen) are assessed in each fraction by a calorimetric method at a wavelength of 550 nm (Chloramine T binding, and reduction of the substrate DAB to a colored end product). The level of denatured collagen in a given sample is then expressed as a percent of the trypsin soluble fraction to the sum of both trypsin soluble and trypsin insoluble fractions.
Achieving the appropriate log reduction should not come at the expense of the integrity of the extracellular matrix. […] The effect of hydrogen peroxide at 6% at 40° C. and 50° C. on collagen was compared to PAA at 0.1% at the same specified temperatures.
Digested and undigested fractions are separated and hydrolyzed with concentrated hydrochloric acid (HCl) to release free amino acids from each fraction. Following neutralization of the acid in 1 N NaOH, levels of hydroxyproline (an amino acid present in high concentrations only in collagen) are assessed in each fraction by a calorimetric method (Chloramine T binding, and reduction of the substrate DAB to a colored end product). The level of denatured collagen in a given sample is then expressed as a percent of the trypsin soluble fraction to the sum of both trypsin soluble and trypsin insoluble fractions.

For the next data set, the system named is B. subtilis. To be noted: hydrogen peroxide alone, 25° C.; cited from earlier work.
In data set [3] the test system is Bacillus stearothermophilus. As to the kind of experiment: Growth inhibition by residual germicide on TSA and blood agar plates. In kind it is cell-based. The procedure:
(§1) In order to determine the reduction in spores after processing with cleaning agents, an effective and consistent method was developed. […] It was determined that residual hydrogen peroxide inhibited the growth at concentrations of 0.6% or higher for TSA plates and 6% or higher for blood plates (FIG. 12). It is believed that the catalase contained in the blood agar plates inactivated the hydrogen peroxide. […] Even though the blood agar plates allowed for dilutions as low as 1:10, the titre used was too low to detect more than a 3 log reduction in the process limiting the data collection for the survivor curves.

Data set [4] deals with Bacillus atrophaeus spores. Conditions: 7.5% hydrogen peroxide, room temperature, 6 hour incubation; cited from earlier work.
Data set [5] concerns B. stearothermophilus spores. On the procedure: Before enumerating the population remaining on tissue following chemical processing, the amount recoverable from the tissue must be determined. The recovery process developed involves the use of sonication, mechanical shaking and agitation on a vortex. Veins were cut into 30 mm segments and clamped at one end. […] The samples were then cut from the clamps and split open over a centrifuge tube containing 39.9 ml of Letheen broth to expose the lumen to the recovery process. A new pair of scissors or a new scalpel blade were used for each vein and the segments were cut over the broth to catch anything that may not have adhered to the surface of the tissue.
The tubes were sonicated at room temperature for ten minutes to break the bacteria from the surfaces. The tubes were then placed on a shaker where they were for another 10 min. The Letheen broth containing the tissue sample was then vortexed for 30 s and diluted in a series of 1:10 dilutions with each dilution plated on blood agar plates. The plates were incubated overnight at 60° C.
The procedure for spike recovery was used to collect data for the reduction curves. Vein segments were inoculated and then treated in one of the following conditions. Hydrogen peroxide (6%) was analyzed at 40° C. and 50° C. while peracetic acid (0.1%) was only tested at 40° C. At each time point, three samples were spiked and treated with one control for recovery efficiency.
(§2) Typically, a survivor curve is constructed with the initial population at time zero and the resultant populations at various time points. Since not all data points could be completed in the same day, some reduction curves were constructed to compare log reduction in the controls for each experiment over time. This normalized the data to its own experimental episode.
A control was used at each experimental episode to provide a correction factor for the treated samples. The recovered population divided by the correction factor provides the surviving population after treatment.

The subject of data set [6] is B. stearothermophilus. Conditions: 26.5% hydrogen peroxide, 25° C.; cited from earlier work.
For data set [7], the system named is enteric bacteria (E. coli, Enterococcus faecalis or Salmonella enteritidis). Conditions: peroxide doses of 0.3 to 15%, 10 min; cited from earlier work.
Data set [8] concerns B. stearothermophilus. To be noted: 6% in DI water, PBS (pH 6) or PBS (pH 7.2), 45° C., sonication. On the procedure: In a separate study, 6% hydrogen peroxide was prepared in either DI water, PBS (pH 6) or PBS (pH 7.2). It was then used at 45° C. to treat B. stearothermophilus while under sonication.
Data set [9] deals with B. stearothermophilus spores. In words: Suspension sterilization: survivor/reduction curves for spores in germicide. Conditions: 6% peroxide. Type of data set: cell-based, Bacillus stearothermophilus.
Description: The effectiveness of a sterilant is defined in terms of decimal reduction time (D-value). This is the exposure time (t) used under certain conditions to cause one log reduction (n) (90%) of the initial population. A suspension is expected to follow a predictable death rate regarding a plot of the amount of survivors over time. The negative reciprocal of the slope of regression lines of survivor curves gives the D-value where t=D×n n=[…]
as §1
To ensure consistency, each vial was vortexed before each replicate and all of the material was removed from the pipette tip onto the plate. Disposable plate spreaders were used to prevent cross contamination. The moisture needed to be maintained at a certain level because the plates would dry out at 60° C., but if there was too much moisture the bacteria would streak across the plate and prevent an accurate count. The first procedure implemented was propping the plates open in a laminar flow hood to allow excessive moisture to dry. The second method employed was placing the plates in a beaker with a porous covering to trap some moisture while allowing the excess to evaporate.
Hydrogen peroxide at a concentration of 6% was used at temperatures of 40, 45 and 50° C. to calculate a curve for modeling the temperature effects on spore kill. […] Samples were removed and immediately placed in an ice bath at 10, 15, 20 and 30 min. The vial was well-mixed on a vortex, and then diluted 1:10 in series before plating.
Peracetic acid at concentrations of 0.1%, 0.05% and 0.005% were used only at 40° C. to calculate a curve for modeling the concentration effects on spore kill. […] Samples were removed and immediately placed in an ice bath at various time points depending on the concentration. The vial was well-mixed on a vortex, and then diluted 1:10 in series before plating.
as §2

Take `CCCCCCCCCCCCOS(=O)(=O)[O-].[Na+]` [SDS, sodium dodecyl sulfate]: the transmural cell removal in data set [1] was greater than 94%.

Take `O=C(O)CN(CCN(CC(=O)O)CC(=O)O)CC(=O)O` [EDTA]: the “effect of addition of EDTA on removal of cells” value in [2] (added to Triton at 0.25%, 6 hours, 37° C.) is given as “enhance the removal of cells”. Moreover, in data set [2] (added to Trypsin), the “effect of addition of EDTA on removal of antigens” value was “inconsistent effect”.

Turning to Trypsin, the cellularity in histology result in the data set with human saphenous vein was “still evidence of cells”. Moreover, the “collagen degradation compared to untreated controls” value in the data set with collagen is on record as “less than half of the degradation of the untreated controls”. The level of antigens result in data set [2] (1.0% Trypsin or 1.0%/0.02% Trypsin/EDTA, minimum of 48° C. and 17 hrs) is reported as “significantly reduced the level of antigens”.

With `OO` [hydrogen peroxide], the “ratio of degraded collagen compared to untreated controls” value in the data set on collagen is reported as “significantly altered matrix properties”. Also, the D-value in the data set on B. subtilis is reported as 55.2 min; in data set [5] (6% hydrogen peroxide, 50° C., spiked tissue (FIG. 20)) it was 6.63; in data set [5] (6% peroxide, 40° C., spiked tissue (FIG. 21)), 15.17; with B. stearothermophilus [6] it was 4.7 min; in [9] (40° C., spores in suspension (FIG. 16)) it was 47.39; in data set [9] (45° C., spores in suspension (FIG. 15)) it was 23.0. In addition, in [9] (50° C., spores in suspension (FIG. 14)), the D-value is 9.87. For the same compound, the “residual concentration that inhibited the growth” value in data set [3] (TSA plates) is no less than 0.6%; in data set [3] (blood plates), no less than 6%. Also, in [4], the growth of spores result is reported as “No growth was detected”. For the same compound, the “time for a 6 log reduction” value in [5] (6% hydrogen peroxide, 50° C., spiked tissue) is reported as “less than 40 minutes”; in data set [9] (40° C., suspension), roughly 5 hours; in data set [9] (50° C., suspension), “less than an hour”. The compound further had a D-value with tissue in [5] (6% peroxide with tissue, temperature not stated) of 5.34. In data set [5] (6% peroxide, temperature not stated), the “decrease of D-value with tissue versus suspension” value is recorded as “approximately 4 minutes”. The log microbial reductions result in data set [7] was “below 0.2 log”. Besides, in the data set on B. stearothermophilus [8], the “effect of buffer/pH on sterilizing” value is listed as “a buffered solution may be more effective”. In addition, the “reduction of the D-value by an increase in temperature” value in data set [9] (from 40° C. to 50° C., suspension) is given as “approximately 80%”.

As to octylphenol ethoxylate [Triton], the “collagen degradation compared to untreated controls” value in the data set on collagen (Triton 1.0%, Cholate 0.25%, 48° C., 24 hours, constant agitation (FIG. 11)) is “A significant degradative effect was not seen”.
